# Data taken from publication PMC10575543 (PLOS Pathogens, 2023).
# “And” between values parts separate entries of the source, which are not always exact repeats. Equal entries are not always repeated.
# Tests used:
# [1] = target: T1, ALSV MTase (Alongshan virus, UniProt A0A344X2I6); test: biochemical; type: binding
# [2] = target: T1, ALSV MTase; type: biochemical
SMILES,Kd [1],inhibition of ALSV MTase methyltransferase activity [2],N index (binding stoichiometry) [1]
"Nc1ncnc2c1ncn2[C@@H]1O[C@H](C[C@@H](N)CC[C@H](N)C(=O)O)[C@@H](O)[C@H]1O [SIN, sinefungin]",12.6 ± 2.8 µM,preserved its inhibitory capacity,
"Nc1ncnc2c1ncn2[C@@H]1O[C@H](CSCC[C@H](N)C(=O)O)[C@@H](O)[C@H]1O [SAH, S-adenosyl-L-homocysteine]",,,0.95 ± 0.05 and 1.05 ± 0.06
